Results reported in patent EP0941220B1, “A PROCESS FOR RECOVERY OF ASCORBIC ACID” (Yissum Research And Development Company Of The Hebrew …, priority 1996, dated 1998).

Assay: Temperature sensitivity of carboxylic acid extraction by 0.5 mol/kg Alamine 304 + 10% octanol in kerosene
Type: physicochemical
Conditions: distribution coefficient at 30°C divided by that at 75°C
From the text: Referring now to said patents and the teachings thereof, one finds that the process taught therein utilizes the effect of temperature on phosphoric and carboxylic acid extraction by amine-based extractants. The term "amine" as used herein means water-immiscible amine, with a total of at least 20 carbon atoms on its chains. Said patents teach that such amine-based extractants (ABE) lose much of their extraction efficiency upon temperature elevation. This loss of efficiency is referred to as "temperature sensitivity of extraction" (TS). The magnitude of this TS can be represented by the ratio of the distribution coefficient at the lower temperature (DT1) to the distribution coefficient at the higher temperature (DT2). High TS provides for the purification and the concentration of carboxylic acids through altering the temperature between extraction and back-extraction. The acid is extracted from a feed solution by an ABE at low temperature, and is then stripped or back-extracted with water at an elevated temperature. […] This process is referred to herein as the "temperature swing process" (TSP).

CCC(=O)O [Propionic, Propionic acid]
TS in Equilibrium with Aqueous Solutions of (mol/kg) 0.05 (0.05 mol/kg equilibrium aqueous phase): 1.7
TS in Equilibrium with Aqueous Solutions of (mol/kg) 0.2 (0.2 mol/kg equilibrium aqueous phase): 1.5
TS in Equilibrium with Aqueous Solutions of (mol/kg) 0.3 (0.3 mol/kg equilibrium aqueous phase): 1.3
TS in Equilibrium with Aqueous Solutions of (mol/kg) 0.475 (0.475 mol/kg equilibrium aqueous phase): 1.1
